Results on 22 molecules are retold here after ChEMBL document CHEMBL4715775, “Synthesis and structure-activity relationships of 1-benzylindane derivatives as selective agonists for estrogen receptor beta” (Bioorg Med Chem, 2016).

For data set [1], the target named is T1, Estrogen receptor (Homo sapiens, UniProt P03372).
T1 sequence (P03372 whole entry): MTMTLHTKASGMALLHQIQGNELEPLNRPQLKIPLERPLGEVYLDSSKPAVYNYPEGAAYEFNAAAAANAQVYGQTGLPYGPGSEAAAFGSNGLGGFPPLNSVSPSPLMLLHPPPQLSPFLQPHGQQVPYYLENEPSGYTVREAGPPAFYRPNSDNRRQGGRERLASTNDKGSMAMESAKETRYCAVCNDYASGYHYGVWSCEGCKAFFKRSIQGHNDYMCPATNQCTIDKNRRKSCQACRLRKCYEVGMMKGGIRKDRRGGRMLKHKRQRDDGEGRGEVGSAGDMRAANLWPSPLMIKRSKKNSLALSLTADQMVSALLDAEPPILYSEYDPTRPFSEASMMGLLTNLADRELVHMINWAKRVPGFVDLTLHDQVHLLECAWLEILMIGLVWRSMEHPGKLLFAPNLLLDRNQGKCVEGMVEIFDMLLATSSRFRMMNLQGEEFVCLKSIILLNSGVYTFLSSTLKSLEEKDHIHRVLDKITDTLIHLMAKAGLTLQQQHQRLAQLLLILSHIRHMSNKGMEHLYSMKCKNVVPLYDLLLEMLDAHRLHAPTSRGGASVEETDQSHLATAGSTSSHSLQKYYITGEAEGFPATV
The experiment in a line: Agonist activity at human ERalpha receptor expressed in HEK293T cells transfected with pGL4.27-(ERE)3-Luc assessed as transcriptional activation at 10 uM measured after 16 hrs by Dual-Glo luciferase assay relative to 17beta-estradiol. The format is cell-based.

For a further data set, the target named is Estrogen receptor beta (Homo sapiens, UniProt Q92731).
Data set [2] deals with T1, Estrogen receptor.
Description: Agonist activity at human ERalpha receptor expressed in HEK293T cells transfected with pGL4.27-(ERE)3-Luc assessed as transcriptional activation measured after 16 hrs by Dual-Glo luciferase assay

Sequence of Estrogen receptor beta (Q92731 whole entry): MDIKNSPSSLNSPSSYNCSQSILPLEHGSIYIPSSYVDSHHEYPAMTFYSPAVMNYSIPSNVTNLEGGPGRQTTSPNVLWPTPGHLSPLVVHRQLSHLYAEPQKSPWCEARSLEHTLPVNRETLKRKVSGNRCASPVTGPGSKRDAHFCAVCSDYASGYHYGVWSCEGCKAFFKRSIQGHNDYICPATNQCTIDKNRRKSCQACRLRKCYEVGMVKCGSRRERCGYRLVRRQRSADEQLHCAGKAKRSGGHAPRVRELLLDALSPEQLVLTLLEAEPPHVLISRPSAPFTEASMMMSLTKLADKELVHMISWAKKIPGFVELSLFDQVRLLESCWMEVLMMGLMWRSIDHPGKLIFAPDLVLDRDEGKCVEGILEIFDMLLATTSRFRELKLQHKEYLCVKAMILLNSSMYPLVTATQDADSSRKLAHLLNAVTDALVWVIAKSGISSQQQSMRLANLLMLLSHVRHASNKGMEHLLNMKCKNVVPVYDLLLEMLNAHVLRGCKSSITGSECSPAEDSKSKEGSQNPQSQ
Description for Estrogen receptor beta: Agonist activity at human ERbeta receptor expressed in HEK293T cells transfected with pGL4.27-(ERE)3-Luc assessed as transcriptional activation measured after 16 hrs by Dual-Glo luciferase assay

One may read the EC50 as the midpoint of the concentration-response curve. The low end stands for greater potency, the high end for weaker potency. Consider `N#CC1(Cc2ccc(O)c(Cl)c2)CCc2cc(O)ccc21` (centres undefined), for which the Activity at Estrogen receptor [1] stood at 7%. The same molecule registered an EC50 on Estrogen receptor beta of 11.6 nM.
Turning to `Cc1cc(CC2(C#N)CCc3cc(O)ccc32)ccc1O` (centres undefined), the Activity at Estrogen receptor [1] is reported as 2%. For the same molecule, the concentration giving a half-maximal response (EC50) at Estrogen receptor beta stood at 10.7 nM.
As to `CCCC1(Cc2ccc(O)cc2)CCc2cc(O)ccc21` (centres undefined), a half-maximal response at Estrogen receptor [2] (EC50) required 169 nM.
`CC1(Cc2ccc(O)cc2)CCc2cc(O)ccc21` (centres undefined) displayed a concentration giving a half-maximal response (EC50) at Estrogen receptor [2] of 481 nM.
On to `Oc1ccc(CC2CCCc3cc(O)ccc32)cc1` (centres undefined), for which the EC50 was found to be 0.18 nM on Estrogen receptor beta and 102 nM at Estrogen receptor [2].
For the molecule `Oc1ccc(CC2CCCCc3cc(O)ccc32)cc1` (centres undefined), the 50% effective concentration (EC50) at Estrogen receptor beta came out at 0.15 nM; at Estrogen receptor [2], 123 nM.
As for `Oc1ccc(CC2CCc3c(O)cccc32)cc1` (centres undefined), at Estrogen receptor beta, the response was half-maximal at 72.4 nM (EC50).
As for `CCC(Cc1ccc(O)cc1)c1ccc(O)cc1` (centres undefined) [ISOBUTESROL], the EC50 on Estrogen receptor beta was 0.23 nM; on Estrogen receptor [2] it was 185 nM.
For the molecule `Oc1cccc(CC2CCc3cc(O)ccc32)c1` (centres undefined), the EC50 at Estrogen receptor beta was found to be 32.5 nM; on Estrogen receptor [2] it was 3090 nM.
For `N#CC1(Cc2ccc(O)c(F)c2)CCc2cc(O)ccc21` (centres undefined), in that order: 0.91 nM and 1820 nM.
In the case of `Oc1ccc(CC2CCc3ccc(O)cc32)cc1` (centres undefined), the concentration giving a half-maximal response (EC50) on Estrogen receptor beta amounted to 25.9 nM; at Estrogen receptor [2], 2110 nM.
For the molecule `N#CC1(Cc2ccc(O)cc2)CCc2cc(O)ccc21` (racemic), a half-maximal effect at Estrogen receptor [2] (EC50) was put at 2790 nM.
Molecule `N#CC1(Cc2ccc(O)cc2Cl)CCc2cc(O)ccc21` (centres undefined) returned an EC50 on Estrogen receptor beta of 0.05 nM.
Consider `N#C[C@@]1(Cc2ccc(O)cc2)CCc2cc(O)ccc21`, for which the 50% effective concentration (EC50) at Estrogen receptor [2] turned out to be 2410 nM.
`Cc1cc(O)ccc1CC1(C#N)CCc2cc(O)ccc21` (centres undefined): the figures for the EC50 on Estrogen receptor beta and at Estrogen receptor [2] were 0.48 nM and 950 nM, respectively.
On Estrogen receptor beta, `N#CCC1(Cc2ccc(O)cc2)CCc2cc(O)ccc21` (centres undefined) had an EC50 of 3.05 nM.
Turning to `CCC1(Cc2ccc(O)cc2)CCc2cc(O)ccc21` (centres undefined), the values for the EC50 on Estrogen receptor beta and on Estrogen receptor [2] were 0.36 nM and 116 nM, respectively.
Turning to `N#C[C@]1(Cc2ccc(O)cc2)CCc2cc(O)ccc21`, the midpoint of the response at Estrogen receptor [2], the EC50, lay at 3020 nM.
For `CCC(c1ccc(O)cc1)C1CCc2cc(O)ccc21` (centres undefined), the response on Estrogen receptor beta was half-maximal at 0.1 nM (EC50).
`CCCCC1(Cc2ccc(O)cc2)CCc2cc(O)ccc21` (centres undefined): on Estrogen receptor [1], the Activity amounted to 42%. This molecule also registered an EC50 on Estrogen receptor beta of 6.59 nM.
With `N#CC1(Cc2ccc(O)cc2F)CCc2cc(O)ccc21` (centres undefined), the EC50 is 0.15 nM at Estrogen receptor beta and 256 nM at Estrogen receptor [2].
On to `Oc1ccc(CCc2ccc(O)cc2)cc1`, for which the Activity on Estrogen receptor [1] was 47%.
